Laboratory results published in ChEMBL document CHEMBL5728931, “Inhibitors of phosphoglycerate dehydrogenase (PHGDH) and uses thereof” (2022).

Molecular target: T1, D-3-phosphoglycerate dehydrogenase (Homo sapiens, UniProt O43175)
T1 sequence (O43175 whole entry): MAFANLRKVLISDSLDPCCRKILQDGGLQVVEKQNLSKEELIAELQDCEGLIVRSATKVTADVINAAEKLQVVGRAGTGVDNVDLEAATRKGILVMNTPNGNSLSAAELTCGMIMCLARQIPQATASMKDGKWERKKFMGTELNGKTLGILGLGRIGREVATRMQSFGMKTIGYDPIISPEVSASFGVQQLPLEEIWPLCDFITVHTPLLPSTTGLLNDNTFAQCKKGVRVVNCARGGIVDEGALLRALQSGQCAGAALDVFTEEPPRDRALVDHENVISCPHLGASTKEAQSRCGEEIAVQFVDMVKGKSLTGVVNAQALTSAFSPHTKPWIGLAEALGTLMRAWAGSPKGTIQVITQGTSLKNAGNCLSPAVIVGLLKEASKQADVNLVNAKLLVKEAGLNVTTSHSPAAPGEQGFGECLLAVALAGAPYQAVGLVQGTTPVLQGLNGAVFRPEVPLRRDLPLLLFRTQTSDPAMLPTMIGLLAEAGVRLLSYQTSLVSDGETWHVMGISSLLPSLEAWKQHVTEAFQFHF
Assay: Enzyme Assay: PHGDH assay buffer contained 50 mM TEA pH 8.0, 10 mM MgCl2, 0.05% BSA, and 0.01% Tween-20. PHGDH enzyme buffer consisted of assay buffer with 20 nM PHGDH and 0.2 mg/mL diaphorase. PHGDH substrate buffer contained 0.3 mM NAD 1.25 mM glutamate, 0.1 mM 3-phosphoglycerate, 0.2 mM resazurin, 1 μM PSAT1, and 1 μM PSPH. qHTS was performed in 1536-well plates dispensed with a BioRAPTR FRD. Each well contained equal volumes of substrate buffer […]. Plates were read at 0 minutes and 20 minutes at room temperature with a ViewLux uHTS Microplate Imager (PerkinElmer). Follow-up assays were performed in black 384-well plates (Greiner) in 20 μL of enzyme buffer to which compounds were added in dose-response with an HP D300 digital dispenser (Hewlett-Packard), followed by addition of 20 μL of substrate buffer. Plates were incubated at room temperature (25° C.) and read at 0 and 20 minutes with a Spectramax M5 plate reader (Molecular Devices) in fluorescence intensity mode with a λex=550 nm and λem=600 nm (emission cutoff=590 nm).

IC50: > 20 µM
Structure (SMILES): Cc1cc(C)nc(NC(=S)N2CCN(c3cncnc3)CC2)c1
